≈ marks a conversion by molar mass, not a printed value. Read-outs that look alike come from different tables or passages of the source.

The source of these data is paper PMC8802618 (ACS infectious diseases, 2021).

For data set [1] the following is noted: cited from earlier work.
For data set [2], the system named is Chloroquine-Resistant (K1) strain of P. falciparum. The note with it: parent compound; cited from earlier work.
For data set [3] the following is noted: cited from earlier work. The source holds these as a separate data set.
For data set [4], the system named is Chloroquine-Sensitive (NF54) strain of P. falciparum. To be noted: parent compound; cited from earlier work.
For data set [5] the following is noted: single oral dose as low as 20 mg/kg; cited from earlier work.
Data set [6] concerns P. falciparum parasites harboring mutations in the Kelch protein, K13. To be noted: cited from earlier work.
Data set [7] concerns Chloroquine-Sensitive (NF54) strain of P. falciparum. Format: cell-based. The note with it: 72 h [3H]-hypoxanthine incorporation; mean of two biological replicates.
Data set [8] deals with Chloroquine-Resistant (K1) strain of P. falciparum. Format: cell-based. The note with it: for IC50 K1: 72 h [3H]-hypoxanthine incorporation, mean of two biological replicates.

For `CC(C)(N)CNC(=O)C[C@H]1CC[C@]2(CC1)OO[C@]1(O2)C2CC3CC(C2)CC1C3` [Arterolane], in data set [1] (in vivo), the in vivo half-life is 2 to 4 h.

Regarding `c1cc([C@H]2CC[C@]3(CC2)OO[C@]2(O3)C3CC4CC(C3)CC2C4)ccc1OCCN1CCOCC1` [compound 2], the “IC50 K1” value in data set [2] is on record as 1.6 ng/mL (≈ 3.41 nM). Besides, the safety result in data set [3] (up to a dose of 1600 mg) is recorded as “good safety properties”. Moreover, in data set [4], the “IC50 NF54” value is recorded as 1.9 ng/mL (≈ 4.05 nM). Further, in data set [5], the cure rate is on record as 100%. Moreover, the “activity against K13 mutant parasites” value in data set [6] was “active”.

With `[O-][N+]1(CCOc2ccc(C3CCC4(CC3)OOC3(O4)C4CC5CC(C4)CC3C5)cc2)CCOCC1` (stereo not shown) [compound 8], the “IC50 NF54” value in data set [7] is on record as 2.3 ng/mL (≈ 4.74 nM). The “relative area under the plasma concentration versus time curve (AUC) of metabolites” value in data set [3] (human, in vivo) is on record as “comparatively lower AUC values”. Moreover, the “IC50 K1” value in data set [8] is on record as 1.4 ng/mL (≈ 2.88 nM). In data set [8] (K1 and NF54 strains, Table 1), the “in vitro activity against P. falciparum relative to parent 2” value was “comparable to 2”.

For `[O-][N+]1(CCOc2ccc(C3CCC4(CC3)OOC3(O4)C4CC5CC3CC(O)(C5)C4)cc2)CCOCC1` (stereo not shown) [compound 11], the “IC50 NF54” value in data set [7] is >100/>100 ng/mL. Further, the “IC50 K1” value in data set [8] is >100/>100 ng/mL.

In the case of `C[C@H]1[C@@H](O)O[C@@H]2O[C@@]3(C)CC[C@H]4[C@H](C)CC[C@@H]1[C@@]24OO3` [dihydroartemisinin], the in vivo half-life in data set [1] is recorded as ~ 2 h.
